Laboratory results: article PMC3039689, “Identification of Small Molecule Lead Compounds for Visceral Leishmaniasis Using a Novel Ex Vivo Splenic Explant Model System” (PLoS Neglected Tropical Diseases, 2011)
Where a name gives a salt, the structure may show the parent alone. Read-outs that look alike come from different tables or passages of the source.

What was measured:
[1] = biological target: luciferase-transfected Leishmania donovani; experiment: Anti-leishmanial efficacy (EC50) in the ex vivo splenic explant model; assay type: cell-based
Method: To establish the plate assay for drug screening, the spleens from 2 infected hamsters were aseptically removed and placed in a Petri dish containing 5 mL of Collagenase D (Roche) at 2 mg/mL of buffer (10 mM Hepes pH 7.4, 150 mM NaCl, 5 mM KCl, 1 mM MgCl2, 1.8 mM CaCl2). The spleen was infiltrated by injection with approximately 2 mL of Collagenase solution, the tissue was cut into small pieces using sharp scissors, and incubated for 20 minutes at 37°C. The cell suspension and remaining tissue fragments were gently passed through a 100 µm cell strainer (B–D) to obtain a single cell suspension, which was washed twice by centrifugation (500 g for 7 min at 4°C) and re-suspended in culture medium composed of DMEM (Gibco), 5% FBS, 1 mM Sodium pyruvate (Gibco), 1X MEM amino acids solution (Sigma), 0.02% v/v/EDTA, 10 mM HEPES buffer (Cellgro) and 100 IU/mL Penicillin/100 […] Streptomycin solution (Cellgro).
The anti-leishmanial efficacy of the compounds was determined using the splenic explant model in a 96-well plate format. […] Because variation in the parasite burden between different explant cultures was expected, the concentration of cells used in each experiment was adjusted to give approximately 100 counts by luminometry (equivalent to ∼240,000 parasites). The number of surviving parasites was determined by luminometry as described above.

[2] = tested on: HepG2 cells; experiment: Cell toxicity (CC50) in the HepG2 cell line, CellTiter-Glo; assay type: cell-based, human
Method: (§1) After 24 hours of culture at 37°C the number of viable cells was determined by quantification of the ATP present in the cell using the CellTiter-Glo luminescent Cell Viability Assay (Promega).

[3] = as above; assay type: cell-based, human; conditions: human
Method: as §1

[4] = ex vivo splenic explant, 48 h, luminometry, at least two experiments, compound from screened library, read-out: Ex vivo model EC50 Mean
[5] = HepG2 cell line, 24 h, ATP luminescence, compound from screened library, read-out: HepG2 CC50 Mean
[6] = 50% reduction in parasite counts in the ex vivo model, read-out: EC50 Mean (Table S2)
[7] = Leishmania donovani, 48 h, ex vivo splenic explant, 48 h, luminometry, at least two experiments, compound from screened library, read-out: Ex vivo model EC50 Mean
[8] = Leishmania donovani, 50% reduction in parasite counts in the ex vivo model, read-out: EC50 Mean (Table S2)
[9] = Leishmania donovani, ex vivo splenic explant, 48 h, luminometry, at least two experiments, compound from screened library, read-out: Ex vivo model EC50 Mean
[10] = HepG2 cells, HepG2 cell line, 24 h, ATP luminescence, compound from screened library, read-out: HepG2 CC50 Mean

Row | Compound | EC50 [1, 4] [µM] | CC50 [2, 5] [µM] | also measured
1 | 7-(2-(6-Ethoxy-1-methyl-1.lambda.~5~-quinolin-2-yl)vinyl)-5-methyl-8-quinolinol; Quinolinium, {6-ethoxy-2-[2-(8-hydroxy-5-methyl-7-quinolyl)vinyl]-1-methyl-} iodide | 5.7 | 46 | –
2 | OC(c1cc(-c2ccc(Cl)cc2)nc2ccccc12)C1CCCCN1 (stereo not drawn) [2-(4-chlorophenyl)quinolin-4-yl]-(2-piperidyl)methanol] | 6.7 | 38.4 | –
3 | c1ccc(-c2ccc(-c3ccc(C4=NCCN4)cc3)o2)cc1 [2-[4-(5-phenylfuran-2-yl)phenyl]-4,5-dihydro-1H-imidazole chloride] | 7.5 | – | CC50 [2]: 42.9 µM
4 | CCC1=C(CC2NCCc3cc(OC)c(OC)cc32)CC2c3ccccc3CCN2C1 (stereo not drawn) [2-[(6,7-dimethoxy-1,2,3,4-tetrahydroisoquinolin-1-yl)methyl]-3-ethyl-4,6,7,11b-tetrahydro-1H-pyrido[2,1-a]isoquinoline] | 8.8 | 76.2 | –
5 | OC(c1cc(-c2ccccc2)nc2c1ccc1ccccc12)C1CCCCN1 (stereo not drawn) [2-phenylbenzo[h]quinolin-4-yl)(2-piperidinyl)me] | 5 | 28.7 | –
6 | CCN(CC)CC(O)c1ccc2ccc3ccccc3c2c1 (stereo not drawn) [3-Phenanthrenemethanol, α-[ (diethylamino)methyl]-, hydrochloride] | 8.9 | 54.2 | –
7 | O=[As](O)(O)c1ccc(Cc2ccc([As](=O)(O)O)cc2)cc1 [4-[(4-arsonophenyl)methyl]phenyl]arsonic acid] | 6.9 | 34.5 | –
8 | CCCCCCc1ccc(O)cc1O.Nc1c2ccccc2nc2ccccc12 [Acrisorcin] | 8 | 50.9 | –
9 | CC1=CC(C2/C(=N/O)C=C(C)CC2(C)C)C(O)C(C)(C)C1 (stereo not drawn) [Cristox Oxime] | 10.9 | 140 | –
10 | CC(C)c1ccc2c(c1)CC[C@H]1[C@](C)(CN)CCC[C@]21C [Dehydroabietylamine] | 5.8 | – | CC50 [2]: 32.9 µM
11 | CCN(CC)COC(=S)S [Diethylaminomethoxymethanedithioic acid] | 3.7 | 83.7 | –
12 | CC(C)=CC(=O)O[C@H]1[C@H]2[C@H](OC(=O)[C@H]2C)[C@H](O)[C@@H](C)[C@@H]2C=CC(=O)[C@]21C [Fastigilin B] | 8.9 | 44.8 | –
13 | CC[C@@H](C(=O)[C@@H](C)[C@@H](O)[C@H](C)CCc1ccc(C)c(O)c1C(=O)O)[C@H]1O[C@](CC)([C@H]2CC[C@](O)(CC)[C@H](C)O2)C[C@@H]1C [Lasalocid Sodium] | 8.9 | 45.8 | –
14 | c1ccc2c(c1)Sc1ccccc1N2CC1CN2CCC1CC2 (stereo not drawn) [Mequitazine,10-(3-Quinuclidinylmethyl)phenothiazine] | 8.5 | 50.3 | –
15 | Cc1cc(C(C)(C)CC(C)(C)C)ccc1OCCOCC[N+](C)(C)Cc1ccccc1 [Methylbenzethonium Chloride] | 7.1 | – | EC50 [1, 6]: 7.06 µM; CC50 [2]: 53.2 µM
16 | CO[C@@H]1C[C@@H](C[C@H]2CC[C@H](C)[C@H]([C@@H](C)C(=O)O)O2)O[C@]2(O[C@](C)([C@H]3CC[C@@](C)([C@@H]4O[C@@H]([C@H]5O[C@@](O)(CO)[C@H](C)C[C@@H]5C)C[C@@H]4C)O3)C[C@H]2C)[C@@H]1C [Nigericin, monosodium salt] | – | – | EC50 [1, 7]: 3.1 µM; EC50 [1, 8]: 3.13 µM; CC50 at 24 h [3]: 34.3 µM
17 | C[C@@H]1C[C@H]2CC[C@H](O2)[C@H](C)C(=O)O[C@@H](C)C[C@@H]2CC[C@@H](O2)[C@@H](C)C(=O)O[C@H](C)C[C@H]2CC[C@H](O2)[C@H](C)C(=O)O[C@@H](C)C[C@@H]2CC[C@@H](O2)[C@@H](C)C(=O)O1 [Nonactin] | – | – | EC50 [1, 9]: 0.1 µM; CC50 [3]: 23.7 µM
18 | CNCCC=C1c2ccccc2CCc2ccccc21 [Nortriptyline Hydrochloride] | – | – | EC50 [1, 7]: 7.8 µM; CC50 [3]: 52.6 µM

Row | Compound | EC50 [1, 4] [µM] | CC50 [2, 5] [µM] | also measured
19 | CCCCCCCCCCC[C@@H](C[C@@H]1OC(=O)[C@H]1CCCCCC)OC(=O)[C@H](CC(C)C)NC=O [Orlistat] | – | – | EC50 [1, 7]: 24.9 µM; CC50 at 24 h [3]: 161 µM
20 | N=C1C=CC(=C(c2ccc(N)cc2)c2ccc(N)cc2)C=C1 [Pararosaniline Pamoate] | – | – | EC50 [1, 9]: 2.7 µM; CC50 at 24 h [3]: 37.1 µM
21 | C=C1C(=O)O[C@@H]2[C@H]1CC[C@H](C)[C@]1(O)C=CC(=O)[C@@]21C [Parthenicin] | 8.7 | 64.5 | –
22 | C=C1C(=O)O[C@H]2[C@H]1CC/C(C)=C/CC[C@@]1(C)O[C@@H]21 [Parthenolide] | – | – | EC50 [1, 7]: 13.3 µM; EC50 [1, 8]: 13.3 µM; CC50 at 24 h [3, 10]: 81.1 µM
23 | C[C@]12C(=O)C=CCC1=CC[C@@H]1[C@@H]2CC[C@@]2(O)C(=O)O[C@@]3(C)[C@H]4C[C@]5(C)[C@@H](CO[C@@]16O[C@]23[C@H]5C6=O)C(=O)O4 [Physalin B] | – | – | EC50 [1, 8]: 8.59 µM; EC50 [1, 9]: 8.6 µM; CC50 at 24 h [3, 5]: 50.7 µM
24 | CN(C)CCCNc1c2c(=O)n(C)c(=O)nc-2n(C)c2ccccc12 [Pyrimido[4,5-b]quinoline-2,4(3H,10H)-dione, 5-[[3-(dimethylamino)propyl]amino]-3,10-dimethyl-, monohydrochloride] | – | – | EC50 [1, 7]: 6.5 µM; CC50 at 24 h [3, 10]: 49.5 µM
25 | C=C1C(=O)[C@]23[C@H](O)[C@H]1CC[C@H]2[C@@]12CO[C@]3(O)[C@@H](O)[C@@H]1C(C)(C)CC[C@@H]2O [Rubescensin A] | 11 | – | CC50 [2]: 69.1 µM
26 | CC[C@@H](C(=O)[C@@H](C)[C@@H](O)[C@H](C)[C@@H]1O[C@@H]([C@@H](CC)C(=O)O)CC[C@@H]1C)[C@H]1O[C@]2(C=C[C@@H](O)[C@]3(CC[C@@](C)([C@H]4CC[C@](O)(CC)[C@H](C)O4)O3)O2)[C@H](C)C[C@@H]1C [Salinomycin, Sodium] | 7.4 | 48.4 | EC50 [1, 6]: 7.44 µM
27 | O=C1C=C2C=C[C@@H]3C[C@@]2(O1)[C@H]1CCCCN31 [Securinine] | – | – | EC50 [1, 9]: 6.2 µM; CC50 [3, 5]: 47.7 µM
28 | NCCCCNCCCN [Spermidine Trihydrochloride] | – | – | EC50 [1, 7]: 20 µM; CC50 at 24 h [3, 10]: 132 µM
29 | CC1CC(C)(O)CC(C(O)CC2CC(=O)NC(=O)C2)C1=O (stereo not drawn) [Streptovitacin A] | 3.7 | 32.4 | –
30 | CCCC(c1cc(C(C)(C)C)c(O)cc1C)c1cc(C(C)(C)C)c(O)cc1C [Sumilit BBM] | 9.4 | 71.7 | –
31 | COc1ccc2cc1Oc1ccc(cc1)C[C@H]1c3cc(c(OC)cc3CCN1C)Oc1c(OC)c(OC)cc3c1[C@H](C2)N(C)CC3 [Tetrandrine] | – | – | EC50 [1, 9]: 5.6 µM; CC50 at 24 h [3]: 31.4 µM
32 | COc1ccc2c(=O)oc3c(OC)cc(CCN(C)C)c4c(=O)oc1c2c34 [Thaspine Acetate] | 2.7 | 51.4 | –
33 | CSc1ccc2c(c1)N(CCCN(C)C)c1ccccc1S2 [Thiomethylpromazine] | 13 | 83.9 | –
34 | O=c1c2ccccc2sc2c(CO)ccc(NCCN3CCCCC3)c12 [Thioxanthen-9-one, 4-(hydroxymethyl)-1-[(2-piperidinoethyl)amino]-; 9H-Thioxanthen-9-one, 4-(hydroxymethyl)-1-[[2-(1-piperidinyl)ethyl]amino]-] | 9.1 | 56 | –
35 | CC(C)[C@@H]1NC(=O)[C@H](C)OC(=O)[C@@H](C(C)C)NC(=O)[C@@H](C(C)C)OC(=O)[C@H](C(C)C)NC(=O)[C@H](C)OC(=O)[C@@H](C(C)C)NC(=O)[C@@H](C(C)C)OC(=O)[C@H](C(C)C)NC(=O)[C@H](C)OC(=O)[C@@H](C(C)C)NC(=O)[C@@H](C(C)C)OC1=O [Valinomycin] | – | – | EC50 [1, 9]: 0.02 µM; CC50 at 24 h [3, 5]: 10.7 µM
